US20180000794A1, “COMPOSITION FOR PREVENTION OR TREATMENT OF BRONCHIAL ASTHMA COMPRISING PKR INHIBITOR AS ACTIVE INGREDIENT” (INDUSTRIAL COOPERATION FOUNDATION CHONBUK NATIONAL …, priority 2015, published 2018)

Assays:
Format in all cases: in vivo, mouse
[1] = test system: mice with neutrophilic severe asthma; assay: Peribronchitis and perivascular inflammation in lung tissues (H&E histology) of mice with neutrophilic severe asthma; details: C57BL/6 mice, OVA+LPS-induced asthma; H&E stained lung sections, optical microscope 20×; FIG. 2
Source text: (§1) 8-week old female C57BL/6 mice were purchased from Orient Bio (Sungnam, Korea) and used as experimental animals. Experimental groups were divided into 4 groups and 5 C57BL/6 mice were assigned to each group. Animals in one experimental group were inhaled with saline and treated with vehicle. Animals in the other three experimental groups were sensitized with ovalbumin (OVA) and lipopolysaccharide (LPS), followed by inhalation of ovalbumin to induce asthma. Animals with induced asthma in one experimental group were treated with vehicle 1 hour before the first inhalation of ovalbumin and 6 hours after the last inhalation of ovalbumin. Animals in the other two experimental groups were intraperitoneally administered with 60 μg/kg and 600 g/kg of the PKR inhibitor [6,8-Dihydro-8-(1H-imidazol-5-ylmethylene)-7H-pyrrolo[2,3-g]benzothiazol-7-one] a total of two times, 1 hour before the first inhalation of ovalbumin and 6 hours after the last inhalation of ovalbumin. […]

[2] = test system: mice with neutrophilic severe asthma; assay: Bronchial hyperresponsiveness (Rrs) to aerosol methacholine in mice with neutrophilic severe asthma; details: methacholine 5.0 to 50 mg/ml by nebulizer; compared to the group treated with vehicle only; FIG. 3
Source text: as §1, with “ovalbumin.” for “ovalbumin. Animals in the other two experimental groups were intraperitoneally administered with 60 μg/kg and 600 g/kg of the PKR inhibitor [6,8-Dihydro-8-(1H-imidazol-5-ylmethylene)-7H-pyrrolo[2,3-g]benzothiazol-7-one] a total of two times, 1 hour before the first inhalation of ovalbumin and 6 hours after the last inhalation of ovalbumin.”
In order to identify the effects of the PKR inhibitor of the present invention on bronchial hyperresponsiveness in mouse models with neutrophilic severe asthma, aerosol methacholine was administered into the airways of mice, and then the changes in airway function were measured. […] At the same time, the mice were administered with methacholine through the ventilator while gradually increasing the dose from 5.0 mg/ml to 50 mg/ml using a nebulizer, and the bronchial hyperresponsiveness (Rrs) was continuously measured. The bronchial hyperresponsiveness was assessed as a percentage of the basal value when the maximum of Rrs values measured at each methacholine concentration was administered to saline control, and the results are shown in FIG. 3.

[3] = test system: IL-4, IL-5, IL-13, IL-17, KC; assay: Cytokines and chemokines in lung tissues by Western blotting, mice with neutrophilic severe asthma; details: Western blotting of lung tissue proteins; OVA+LPS-induced asthma; FIGS. 4A to 4E
Source text: as §1, with “ovalbumin.” for “ovalbumin. Animals in the other two experimental groups were intraperitoneally administered with 60 μg/kg and 600 g/kg of the PKR inhibitor [6,8-Dihydro-8-(1H-imidazol-5-ylmethylene)-7H-pyrrolo[2,3-g]benzothiazol-7-one] a total of two times, 1 hour before the first inhalation of ovalbumin and 6 hours after the last inhalation of ovalbumin.”
Quantitation of cytokines and chemokines was confirmed by Western blotting of the proteins in lung tissues. […] Then, the samples were loaded on SDS-PAGE gel and quantitated using an anti-IL-4 antibody (Serotec, UK) against IL-4, an anti-IL-5 antibody (SantaCruz Biotechnology, USA) against IL-5, anti-IL-13 and anti-IL-17 antibodies (R&D Systems, USA) against IL-13 and IL-17, and an anti-KC antibody against keratinocyte-induced chemokine (KC) (BioVision, USA), and the results are shown in FIGS. 4A to 4E.

O=C1Nc2ccc3ncsc3c2/C1=C/c1c[nH]cn1 [PKR inhibitor, 6,8-Dihydro-8-(1H-imidazol-5-ylmethylene)-7H-pyrrolo[2,3-g]benzothiazol-7-one]
level of airway inflammation in lung tissues [1]: significantly reduced | Rrs values (bronchial hyperresponsiveness) [2]: significantly reduced | airway resistance dose response curves [2]: shifted to the right | cytokines and chemokines in lung tissues (IL-4, IL-5, IL-13, IL-17, KC) [3]: reduced
